Results reported in PubChem BioAssay (NCI).
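Here, GI50 denotes the concentration required for 50% inhibition of growth. TGI is the concentration that stops growth completely.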

Key:
Experiment in all cases: growth of human tumour cells (NCI), 384-well format
LOX IMVI melanoma = tested on: LOX IMVI melanoma
SK-OV-3 ovarian = tested on: SK-OV-3 ovarian
NCI-H522 lung = tested on: NCI-H522 lung
SF-295 CNS = tested on: SF-295 CNS
UO-31 renal = tested on: UO-31 renal
NCI-H460 NSCLC = tested on: NCI-H460 NSCLC
MALME-3M melanoma = tested on: MALME-3M melanoma
COLO 205 colon = tested on: COLO 205 colon
HCT-116 colon = tested on: HCT-116 colon
CCRF-CEM leukemia = tested on: CCRF-CEM leukemia
KM12 colon = tested on: KM12 colon
BT-549 breast = tested on: BT-549 breast
HOP-62 NSCLC = tested on: HOP-62 NSCLC

O=C(c1cc(Cc2n[nH]c(=O)c3ccccc23)ccc1F)N1CCN(C(=O)C2CC2)CC1
GI50 (LOX IMVI melanoma): 23 µM | TGI (LOX IMVI melanoma): > 100 µM | GI50 (SK-OV-3 ovarian): > 55.5 µM | TGI (SK-OV-3 ovarian): > 100 µM | GI50 (NCI-H522 lung): 51.7 µM | TGI (NCI-H522 lung): > 100 µM | GI50 (SF-295 CNS): 4.68 µM | TGI (SF-295 CNS): > 37.3 µM | GI50 (UO-31 renal): > 92.7 µM | TGI (UO-31 renal): > 100 µM | GI50 (NCI-H460 NSCLC): 5.78 µM | TGI (NCI-H460 NSCLC): > 100 µM | GI50 (MALME-3M melanoma): > 100 µM | TGI (MALME-3M melanoma): > 100 µM | GI50 (COLO 205 colon): > 77 µM | TGI (COLO 205 colon): > 100 µM | GI50 (HCT-116 colon): 8.27 µM | TGI (HCT-116 colon): > 100 µM | GI50 (CCRF-CEM leukemia): 6.5 µM | TGI (CCRF-CEM leukemia): > 100 µM | GI50 (KM12 colon): > 100 µM | TGI (KM12 colon): > 100 µM | GI50 (BT-549 breast): 17.2 µM | TGI (BT-549 breast): > 75.8 µM | GI50 (HOP-62 NSCLC): 4.92 µM | TGI (HOP-62 NSCLC): > 75.5 µM
